# Literature values in patent US12280067B2 (Phenolics, LLC, priority 2019, dated 2025).
# Columns and labels:
# [1] = test system: Caco-2 monolayers; settings: Dash et al. 2001
# [2] = rats, injected intravenously
# [3] = oral, 6-week period, versus creatine monohydrate
SMILES,Permeability via Caco-2 monolayers [1],ATP levels in red blood cells [2],Bio-transformation and elimination in the body [2],"Effectiveness in achieving lean body mass, desired body weight and improved strength [3]"
CN(CC(=O)O)C(=N)N [creatine],quite low,–,–,–
"CN(CC(=O)O)C(=N)NP(=O)(O)O [phosphocreatine, N-Methyl-N-(phosphono-carbamimidoyl)glycine]",–,significant elevation,very rapidly,as effective as creatine monohydrate
